Experimental data from paper PMC10121968, “Fosgonimeton, a Novel Positive Modulator of the HGF/MET System, Promotes Neurotrophic and Procognitive Effects in Models of Dementia” (Neurotherapeutics, 2022).
Non-standard residues stand in square brackets, D forms with d. Residues, ends and D or L forms follow the SMILES beside them. *: point of attachment. Hexanoyl = CCCCCC(=O)*; Ahx = NCCCCCC(=O)O

What was measured:
Oral bioavailability = conditions: in vivo
MET receptor = molecular target: T1, MET receptor (Homo sapiens, UniProt P08581); experiment: Phosphorylated MET receptor (pMET) ELISA in HEK293 cell lysates; format: cell-based; conditions: HEK293 cells, 1 ng/mL HGF, 0.001–100 nM, 15 min
T1 construct: pMET enzyme-linked immunosorbent assay (ELISA) of human embryonic kidney (HEK293) cell lysates; endogenous in cells; host or cells: HEK293 (ATCC CRL-1573)
Protocol: Human embryonic kidney (HEK293, ATCC CRL-1573) cells were grown at 37 °C, 5% CO2 in Dulbecco's Modified Eagle Medium (DMEM) + 10% fetal bovine serum (FBS) in T-75 flasks until approximately 90% confluent and then seeded in polystyrene-treated 6-well plates for at least 8 h in serum-free growth media. Recombinant HGF protein (R&D Systems, Minneapolis, Minnesota) with or without experimental small-molecule treatment cocktails (Jubilant Biosys, Uttar Pradesh, India) were prepared in DMEM + 0.1% FBS and added to wells in triplicate for 15 min. Cells were lysed with 180 μL ice-cold RIPA buffer including a phosphatase inhibitor (PhosphataseArrest, G-Biosciences, St. Louis, Missouri) on ice for 15 min and then cleared by centrifugation at 16,000 g. Bicinchoninic acid (BCA) assays of lysates were used to normalize protein concentration across samples. Phosphorylated MET receptor (pMET) enzyme-linked immunosorbent assay (ELISA) kit processing was carried out according to the manufacturer’s instructions (Phospho-MET [Tyr1234/1235] Sandwich ELISA Kit, CST #7227C, Cell Signaling Technology, Danvers, Massachusetts). Raw absorbance signals were scaled between subthreshold (1 ng/mL HGF) and saturating (10 ng/mL HGF) controls such that HGF 1 ng/mL = 1 and HGF 10 ng/mL = 10. The statistical difference from subthreshold control was determined by Student’s t-test. […]

IL-1β = IL-1β release in LPS-challenged THP-1 macrophages (HTRF); format: cell-based, human; conditions: 1 µM, 20 min pretreatment, LPS 50 ng/mL 24 h, vs LPS + vehicle
Protocol: To determine the effect of fosgo-AM on LPS-induced cytokine release, we sought to determine the levels of interleukin-1β (IL-1β), interleukin-6 (IL-6), and tumor necrosis factor-α (TNF-α) in LPS-challenged THP-1–differentiated macrophages in the presence and absence of fosgo-AM. THP-1 monocytes were grown at 37 °C, 5% CO2 in Roswell Park Memorial Institute (RPMI) medium + 10% FBS until approximately 80% confluent. Cells were seeded in polystyrene-treated 96-well cell culture plates at approximately 50,000 cells/well in 100-µL complete media. 100 µL Phorbol myristate acetate was then added to each well for a final concentration of 100 ng/mL. The plate was then incubated for 3 days at 37 °C, 5% CO2 to prime the monocytes into macrophages. […] For cytokine quantification, cell culture supernatant was assayed by HTRF kits to assess levels of IL-1β (Human IL-1β kit, #62HIL1BPEG, Cisbio, Codolet, France) and IL-6 (Human IL-6 kit, 62HIL06PET, Cisbio, Codolet, France), and by ELISA (Human TNF-α ELISA kit, KHC3011, ThermoFisher, Waltham, Massachusetts) to determine the levels of TNF-α. […] Fluorescence emission at 2 different wavelengths (665 nm and 620 nm) were measured on an Envision plate reader (PerkinElmer, Waltham, Massachusetts), and HTRF ratio of the acceptor and donor emission signals for each well was calculated as follows: HTRF ratio = (665 nm/620 nm) × 10,000. […]

[1] = Fosgonimeton CNS distribution in mice; format: in vivo, mouse; conditions: 5 mg/kg fosgonimeton IV, whole brain, 0.16 h
Protocol: Four C57BL/6 mice—2 males and 2 females—were treated with 5 mg/kg fosgonimeton via intravenous (IV) injection. At 0.16 h after dosing, animals were humanely killed and perfused with normal saline. The whole brain was collected and homogenized before determination of fosgonimeton and fosgo-AM tissue penetration by LC/MS/MS.

[2] = Fosgo-AM solubility (turbidity in PBS); format: physicochemical; conditions: 1% DMSO, 37 °C, 2 h
Protocol: A fosgo-AM dilution series was produced in DMSO. Compound stocks were added in triplicate to a 96-well plate containing PBS, resulting in 1% DMSO concentration, and were incubated at 37 °C for 2 h. Turbidity in the sample wells was determined by absorbance at 620 nm.

T1 sequence (P08581 308-1390 limits assumed): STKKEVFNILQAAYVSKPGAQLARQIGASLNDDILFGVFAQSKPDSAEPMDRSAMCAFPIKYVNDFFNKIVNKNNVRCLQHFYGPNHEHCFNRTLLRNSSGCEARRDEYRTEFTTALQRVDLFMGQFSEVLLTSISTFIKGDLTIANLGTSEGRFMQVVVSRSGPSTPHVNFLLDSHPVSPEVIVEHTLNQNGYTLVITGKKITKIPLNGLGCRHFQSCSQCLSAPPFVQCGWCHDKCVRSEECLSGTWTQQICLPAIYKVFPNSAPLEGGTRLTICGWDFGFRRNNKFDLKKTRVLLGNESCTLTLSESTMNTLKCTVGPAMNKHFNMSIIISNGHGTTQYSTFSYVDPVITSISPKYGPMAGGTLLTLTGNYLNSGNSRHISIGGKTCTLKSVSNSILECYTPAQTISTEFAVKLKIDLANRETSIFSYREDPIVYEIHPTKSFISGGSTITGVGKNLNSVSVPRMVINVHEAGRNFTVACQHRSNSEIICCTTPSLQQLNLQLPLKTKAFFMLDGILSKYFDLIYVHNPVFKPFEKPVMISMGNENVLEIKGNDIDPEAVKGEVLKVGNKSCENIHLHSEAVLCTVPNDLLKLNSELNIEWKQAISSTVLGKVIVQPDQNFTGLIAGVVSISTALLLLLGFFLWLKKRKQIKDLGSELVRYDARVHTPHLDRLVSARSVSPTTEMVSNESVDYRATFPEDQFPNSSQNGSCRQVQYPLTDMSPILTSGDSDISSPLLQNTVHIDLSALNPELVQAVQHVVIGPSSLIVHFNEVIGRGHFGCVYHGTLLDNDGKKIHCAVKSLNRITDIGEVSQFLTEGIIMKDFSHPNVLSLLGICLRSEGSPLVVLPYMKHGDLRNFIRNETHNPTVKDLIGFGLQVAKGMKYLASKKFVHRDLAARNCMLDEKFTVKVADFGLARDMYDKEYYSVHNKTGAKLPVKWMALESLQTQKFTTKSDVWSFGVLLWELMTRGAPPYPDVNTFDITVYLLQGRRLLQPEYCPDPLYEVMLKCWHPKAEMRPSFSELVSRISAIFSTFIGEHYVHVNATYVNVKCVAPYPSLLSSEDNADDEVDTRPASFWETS
T1 sequence (P08581 25-307 limits assumed): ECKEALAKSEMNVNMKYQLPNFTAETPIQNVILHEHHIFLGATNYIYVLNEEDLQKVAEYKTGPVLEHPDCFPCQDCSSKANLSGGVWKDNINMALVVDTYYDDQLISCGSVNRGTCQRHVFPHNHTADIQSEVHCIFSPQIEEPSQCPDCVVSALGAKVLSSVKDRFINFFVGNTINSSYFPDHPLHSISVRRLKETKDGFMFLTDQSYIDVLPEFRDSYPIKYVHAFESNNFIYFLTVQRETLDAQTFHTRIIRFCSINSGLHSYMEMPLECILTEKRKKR

Structure (SMILES): CCCCCC(=O)N[C@@H](Cc1ccc(O)cc1)C(=O)N[C@H](C(=O)NCCCCCC(N)=O)[C@@H](C)CC [fosgo-AM] (Hexanoyl-Tyr-Ile-[Ahx]-NH2)
- oral bioavailability (Oral bioavailability): poor oral bioavailability
- enhancement of pMET levels in the presence of low HGF (MET receptor): most potent positive modulator of HGF/MET
- IL-1β release (IL-1β): significant decrease
- Cmax, ng/g ± SEM [1]: 7.9 ± 2.3 ng/g
- maximum aqueous solubility [2]: less than 50 μg/mL
